# Experimental data taken from patent US20250320205A1, “STAT6 DEGRADERS” (Gilead Sciences, Inc., priority 2024, published 2025).
# Biological target: T1, STAT6 (Homo sapiens, UniProt P42226)
# T1 construct: These cells express endogenous STAT6; host or cells: HeLa LgBiT clone 4.14 (CRISPR knock-in of HiBiT into the endogenous STAT6 gene)
# T1 sequence (P42226 1-847): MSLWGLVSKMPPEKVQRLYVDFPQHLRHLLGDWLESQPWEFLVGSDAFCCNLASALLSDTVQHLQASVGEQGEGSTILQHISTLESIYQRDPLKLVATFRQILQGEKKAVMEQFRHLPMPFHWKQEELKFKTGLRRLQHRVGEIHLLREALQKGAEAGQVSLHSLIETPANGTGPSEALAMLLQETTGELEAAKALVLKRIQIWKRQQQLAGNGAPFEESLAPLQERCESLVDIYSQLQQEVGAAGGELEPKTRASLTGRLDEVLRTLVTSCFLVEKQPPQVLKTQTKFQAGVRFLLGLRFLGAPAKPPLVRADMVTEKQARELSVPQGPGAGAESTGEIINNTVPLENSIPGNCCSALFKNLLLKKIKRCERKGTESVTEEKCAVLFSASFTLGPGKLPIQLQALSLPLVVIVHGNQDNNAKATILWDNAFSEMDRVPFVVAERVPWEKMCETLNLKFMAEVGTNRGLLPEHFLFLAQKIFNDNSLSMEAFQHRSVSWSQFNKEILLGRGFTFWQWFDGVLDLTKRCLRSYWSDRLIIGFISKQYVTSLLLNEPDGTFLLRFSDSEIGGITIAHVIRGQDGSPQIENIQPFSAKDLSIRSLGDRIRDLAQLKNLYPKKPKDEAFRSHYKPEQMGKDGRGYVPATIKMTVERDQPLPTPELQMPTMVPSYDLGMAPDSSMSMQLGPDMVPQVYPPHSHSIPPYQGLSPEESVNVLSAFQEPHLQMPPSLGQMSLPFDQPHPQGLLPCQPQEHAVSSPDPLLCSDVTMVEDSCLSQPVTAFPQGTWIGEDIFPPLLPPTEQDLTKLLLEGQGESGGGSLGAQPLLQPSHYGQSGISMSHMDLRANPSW
# Assay: STAT6 Degrader Assay (HiBiT based, HeLa LgBiT clone 4.14 cells)
# Format: cell-based
# Conditions: HeLa; maximal STAT6 degradation
# Protocol: This was a HiBit based assay. A HeLa cell line stably transfected with a small protein, LgBit (Large Bit) was obtained from Promega. These cells express endogenous STAT6. A small 11 amino acid gene sequence (HiBiT) was inserted in the STAT6 gene using CRISPR technology. Once STAT6 protein is expressed in the cells, the HiBiT sequence will bind the LgBit in the cells resulting in a functional NanoBiT protein, giving a luminescent tag to STAT6. Single cell clones were prepared and the clone 4.14 was selected for the assay based on that clone showing high luminescence, high STAT6 phosphorylation upon stimulation with IL-4, and inhibition of luminescence when cells were treated with STAT6 siRNA. HeLa LgBiT clone 4.14 cells were suspended in DMEM with 10% FCS, 1% Pen/Strep, Na-pyrovate and Hygromycin B, at a concentration of 1.25*105 cells pr mL. 5000 cells were added pr well of a 384 well plate and 20 nL of compound was added by Echo® liquid handler. NN6394A (terfenadine, a toxic compound) was added to control wells at 50 μM concentration to establish the assay window. In these wells the cells are dead which equals 100% degradation of STAT6. After 4-24 h of incubation at 37° C. under 5% CO2/95% air, 5 μL substrate (Nano-GLO®) was added to the wells and the plates were centrifuged and incubated for 0.5 h. The luminescence in the wells as a measure of non-degraded STAT6 was measured in a plate reader (BMG Pherastar FSX). The measured DC50 (in nM) was determined.
row,Structure (SMILES),Emax [%]
1,"Cc1cc(C(=O)N2CCC(CN3CCN(c4ncc(NC5CCC(=O)NC5=O)cc4F)CC3)CC2)cc(F)c1C1=CCN([C@@H](C)c2cc3c(-n4ccc5c(c4=O)CCN5)ccnc3n2C)CC1 (stereo partly drawn) [Example 2g49, 3-((5-fluoro-6-(4-((1-(3-fluoro-5-methyl-4-(1-((S)-1-(1-methyl-4-(4-oxo-1,2,3,4-tetrahydro-5H-pyrrolo[3,2-c]pyridin-5-yl)-1H-pyrrolo [2,3-b]pyridin-2-yl)ethyl)-1,2,3,6-tetrahydropyridin-4-yl)benzoyl)piperidin-4-yl)-methyl)piperazin-1-yl)-pyridin-3-yl)amino)piperi-dine-2,6-dione]",< 20
2,"CNc1ccn(-c2ccnc3c2cc(CN2CCC(c4c(C)cc(C(=O)N5CCC(CN6CCN(c7ccc(NC8CCC(=O)NC8=O)cc7F)CC6)CC5)cc4F)CC2)n3C)c(=O)c1 (centres unmarked) [Example 2g60, 3-((3-fluoro-4-(4-((1-(3-fluoro-5-methyl-4-(1-((1-methyl-4-(4-(methylamino)-2-oxopyridin-1(2H)-yl)-1H-pyrrolo[2,3-b]pyridin-2-yl)-methyl)piperidin-4-yl)benzo-yl)piperidin-4-yl)methyl)-piperazin-1-yl)phenyl)amino)-piperidine-2,6-dione]",< 20
3,"COc1cc(N2CCN(CC3CCN(C(=O)c4cc(C)c(C5=CCN([C@@H](C)c6cc7c(-n8cc(F)c9c(c8=O)CCN9)ccnc7n6C)CC5)c(F)c4)CC3)CC2)ccc1NC1CCC(=O)NC1=O (stereo partly drawn) [Example 2g130, 3-((4-(4-((1-(3-fluoro-4-(1-((S)-1-(4-(7-fluoro-4-oxo-1,2,3,4-tetrahydro-5H-pyr-rolo-[3,2-c]pyridin-5-yl)-1-methyl-1H-pyrrolo[2,3-b]pyridin-2-yl)ethyl)-1,2,3,6-tetrahydropyridin-4-yl)-5-methylbenzoyl)piperidin-4-yl)methyl)piperazin-1-yl)-2-methoxyphenyl)amino)piper-idine-2,6-dione]",30 to 40
4,"C[C@@H](c1cc2c(-n3cc(F)c4c(c3=O)CCN4)ccnc2n1C)N1CC=C(c2c(F)cc(C(=O)N3CCC(CN4CCN(c5ccc(NC6CCC(=O)NC6=O)cc5F)CC4)CC3)cc2F)CC1 (stereo partly drawn) [Example 2g131, 3-((4-(4-((1-(3,5-difluoro-4-(1-((S)-1-(4-(7-fluoro-4-oxo-1,2,3,4-tetrahydro-5H-pyrrolo [3,2-c]pyridin-5-yl)-1-methyl-1H-pyrrolo[2,3-b]pyridin-2-yl)ethyl)-1,2,3,6-tetrahydro-pyridin-4-yl)benzoyl)piper-idin-4-yl)methyl)piperazin-1-yl)-3-fluorophenyl)amino)-piperidine-2,6-dione]",50 to 60

# Same assay, conditions: geometric mean across assay runs and compound batches; DC50 provided for test compounds with >80% Emax; read-out: STAT6 degradation DC50
row,Structure (SMILES),DC50 [nM]
1,"Cc1cc(C(=O)N2CCC(CN3CCN(c4ccc(NC5CCC(=O)NC5=O)cc4F)C[C@H]3C)CC2)cc(F)c1C1=CCN([C@@H](C)c2cc3c(-n4ccc5c(c4=O)CCN5)ccnc3n2C)CC1 (stereo partly drawn) [Example 2g22, 3-((3-fluoro-4-((R)-4-((1-(3-fluoro-5-methyl-4-(1-((S)-1-(1-methyl-4-(4-oxo-1,2,3,4-tetrahydro-5H-pyrrolo[3,2-c]pyridin-5-yl)-1H-pyrrolo[2,3-b]pyridin-2-yl)ethyl)-1,2,3,6-tetrahydro-pyridin-4-yl)-benzoyl)piperidin-4-yl)meth-yl)-3-methylpiperazin-1-yl)-phenyl)amino)piperidine-2,6-dione]",3.3
2,"CNc1cc(=O)n(-c2ccnc3c2cc([C@H](C)N2CC=C(c4c(C)cc(C(=O)N5CCC(CN6CCN(c7ccc(NC8CCC(=O)NC8=O)cc7F)C[C@H]6C)CC5)cc4F)CC2)n3C)cc1F (stereo partly drawn) [Example 2g27, 3-((3-fluoro-4-((R)-4-((1-(3-fluoro-4-(1-((S)-1-(4-(5-fluoro-4-(methylamino)-2-oxopyridin-1(2H)-yl)-1-meth-yl-1H-pyrrolo[2,3-b]pyridin-2-yl)ethyl)-1,2,3,6-tetrahydro-pyridin-4-yl)-5-methylbenz-oyl)piperidin-4-yl)methyl)-3-methylpiperazin-1-yl)phenyl)-amino)piperidine-2,6-dione]",4.2
3,"COc1cc(C2CCN(Cc3cc4n(n3)CCN(C(=O)c3ccc(C5CCN([C@@H](C)c6cc7c(-n8ccc9c(c8=O)CCN9)ccnc7n6C)CC5)cc3)C4)CC2)ccc1NC1CCC(=O)NC1=O (stereo partly drawn) [Example 2g30, 3-((2-methoxy-4-(1-((5-(4-(1-((S)-1-(1-methyl-4-(4-oxo-1,2,3,4-tetrahydro-5H-pyrrolo [3,2-c]pyridin-5-yl)-1H-pyrrolo[2,3-b]pyridin-2-yl)-ethyl)piperidin-4-yl)benzoyl)-4,5,6,7-tetrahydropyrazolo [1,5-a]pyrazin-2-yl)methyl)-piperidin-4-yl)phenyl)amino)-piperidine-2,6-dione]",2.6
4,"Cc1cc(C(=O)N2CCC(CN3CCN(c4ccc(NC5CCC(=O)NC5=O)cc4F)CC3)CC2)cc(F)c1C1CCN(Cc2cc3c(-n4ccc5c(c4=O)CCN5)ccnc3n2C)CC1 (centres unmarked) [Example 2g36, 3-((3-fluoro-4-(4-((1-(3-fluoro-5-methyl-4-(1-((1-methyl-4-(4-oxo-1,2,3,4-tetrahydro-5H-pyrrolo[3,2-c]pyridin-5-yl)-1H-pyrrolo[2,3-b]pyridin-2-yl)methyl)piperi-din-4-yl)benzoyl)piperidin-4-yl)methyl)piperazin-1-yl)-phenyl)amino)piperidine-2,6-dione]",35.7
5,"CNc1ccn(-c2ccnc3c2cc([C@H](C)N2CC=C(c4c(C)cc(C(=O)N5CCC(CN6CCN(c7ccc(NC8CCC(=O)NC8=O)cc7F)CC6)CC5)cc4F)CC2)n3C)c(=O)c1 (stereo partly drawn) [Example 2g37, 3-((3-fluoro-4-(4-((1-(3-fluoro-5-methyl-4-(1-((S)-1-(1-methyl-4-(4-(methyl-amino)-2-oxopyridin-1(2H)-yl)-1H-pyrrolo[2,3-b]pyridin-2-yl)ethyl)-1,2,3,6-tetrahydro-pyridin-4-yl)benzoyl)piperi-din-4-yl)methyl)piperazin-1-yl)phenyl)amino)piperidine-2,6-dione]",1.8
6,"CNc1ccn(-c2ccnc3c2cc([C@H](C)N2CC=C(c4c(C)cc(C(=O)N5CCC(CN6CCN(c7ccc(NC8CCC(=O)NC8=O)cc7F)C[C@H]6C)CC5)cc4F)CC2)n3C)c(=O)c1 (stereo partly drawn) [Example 2g46, 3-((3-fluoro-4-((R)-4-((1-(3-fluoro-5-methyl-4-(1-((S)-1-(1-methyl-4-(4-(methyl-amino)-2-oxopyridin-1(2H)-yl)-1H-pyrrolo[2,3-b]pyridin-2-yl)ethyl)-1,2,3,6-tetrahydro-pyridin-4-yl)benzoyl)piperi-din-4-yl)methyl)-3-methyl-piperazin-1-yl)phenyl)amino)-piperidine-2,6-dione]",3.1
7,"CNc1ccn(-c2ccnc3c2cc(CN2CC=C(c4c(C)cc(C(=O)N5CCC(CN6CCN(c7ccc(NC8CCC(=O)NC8=O)cc7F)CC6)CC5)cc4F)CC2)n3C)c(=O)c1 (centres unmarked) [Example 2g54, 3-((3-fluoro-4-(4-((1-(3-fluoro-5-methyl-4-(1-((1-methyl-4-(4-(methylamino)-2-oxopyridin-1(2H)-yl)-1H-pyrrolo[2,3-b]pyridin-2-yl)-methyl)-1,2,3,6-tetrahydro-pyridin-4-yl)benzoyl)piperi-din-4-yl)methyl)piperazin-1-yl)phenyl)amino)piperidine-2,6-dione]",7.3
